Source: the supplement of paper PMC7840683
± gives the standard deviation of the averaged measurements.

Tested on: HepaRG
Experiment: LDH release cytotoxicity, % of total lysis control; higher = more cytotoxic
Settings: 48 h
Summary of the method: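 Single-lot HepaRG cells in collagen I-coated 96-well plates were treated for 48 h in serum-free induction medium containing 0.5% DMSO with test chemicals in eight-point half-log series up to 100 µM. For total lysis, wells received 0.1% Triton X. LDH in 50 µL spent medium was assayed by resorufin fluorescence with CytoTox-ONE. Percent cytotoxicity was normalized to the on-plate vehicle and total lysis controls, with duplicates averaged.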

SMILES	LDH release cytotoxicity (0.1 µM)	LDH release cytotoxicity (1 µM)	LDH release cytotoxicity (3.16228 µM)	LDH release cytotoxicity (10 µM)	LDH release cytotoxicity (31.6228 µM)	LDH release cytotoxicity (100 µM)	LDH release cytotoxicity (0.03162 µM)	LDH release cytotoxicity (0.3162278 µM)	also measured
CC(C)c1cccc(C(C)C)c1 [1,3-Diisopropylbenzene]	-2.55 ± 1.5%	-4.25 ± 0.7%	-3.82 ± 0.32%	-2.51 ± 1.5%	-1.16 ± 0.34%	0.451 ± 1.2%			LDH release cytotoxicity (0.031623 µM): -1.99 ± 0.73%; LDH release cytotoxicity (0.316228 µM): -2.42 ± 1.3%
N=C(Nc1ccccc1)Nc1ccccc1 [1,3-Diphenylguanidine]	-2.15 ± 0.34%	-1.87 ± 1.8%	-1.59 ± 0.016%	-1.1 ± 0.56%	-1.1 ± 0.68%	0.505 ± 0.92%	-0.803 ± 1%	-1.51 ± 0.42%	
O=S1(=O)CCCO1 [1,3-Propane sultone]	-2.2 ± 0.45%	-1.38 ± 0.031%	-1.5 ± 0.31%	-1.53 ± 0.35%	-0.817 ± 0.19%	-0.0166 ± 1.5%	-0.997 ± 0.28%	-1.51 ± 0.54%	
Clc1ccc(Cl)cc1 [1,4-Dichlorobenzene]	-1.22 ± 0.19%	-0.354 ± 1.7%	-0.734 ± 0.3%	-0.586 ± 1.3%	0.224 ± 1.5%	5.07 ± 3.4%	-0.401 ± 1.1%	-1.55 ± 0.4%	
C1=CCCC=CCCC=CCC1 [1,5,9-Cyclododecatriene]									LDH release cytotoxicity (0.032888 µM): 0.325 ± 0.27%; LDH release cytotoxicity (0.104 µM): -1.08 ± 0.16%; LDH release cytotoxicity (0.328877 µM): -2.13 ± 1.5%; LDH release cytotoxicity (1.04 µM): -1.59 ± 0.41%; LDH release cytotoxicity (3.28877 µM): -1.09 ± 0.33%; LDH release cytotoxicity (10.4 µM): -1.273 ± 0.012%; LDH release cytotoxicity (32.8877 µM): -1.4 ± 0.08%; LDH release cytotoxicity (104 µM): 0.633 ± 0.4%
Nc1cccc2c(N)cccc12 [1,5-Naphthalenediamine]	-1.23 ± 0.16%	-2.39 ± 0.034%	-1.95 ± 0.3%	-1.12 ± 0.45%	-1.51 ± 0.7%	0.44 ± 0.38%	-0.228 ± 0.2%	-1.58 ± 0.12%	
O=C=NCCCCCCN=C=O [1,6-Diisocyanatohexane]	-0.852 ± 1.4%	-0.656 ± 0.29%	0.0821 ± 0.041%	0.975 ± 0.72%	0.748 ± 0.51%	0.578 ± 0.58%	-1.38 ± 0.69%	0.3 ± 0.43%	
Oc1ccccc1O [1,2-Benzenediol]	-1.713 ± 0.01%	-2.41 ± 0.4%	-2.9 ± 0.69%	-2.31 ± 0.29%	-1.42 ± 0.88%	-0.0267 ± 0.61%	-1.86 ± 1.3%	-1.94 ± 0.18%	
CC1(C)C(=O)NC(=O)N1CO [1-(Hydroxymethyl)-5,5-dimethylhydantoin]	-1.1 ± 1.7%	-1.77 ± 0.48%	-1.55 ± 0.76%	-1.08 ± 0.36%	-0.999 ± 0.29%	0.312 ± 0.47%	-1.56 ± 1.1%	-1.77 ± 0.95%	
COc1ccc2c(c1)c(CC(=O)O)c(C)n2C(=O)c1ccc(Cl)cc1 [1-(p-Chlorobenzoyl)-5-methoxy-2-methyl-Indole-3-acetic acid]	-0.408 ± 0.23%	0.493 ± 0.042%	0.818 ± 0.36%	0.284 ± 0.81%	0.637 ± 0.53%	1.2 ± 0.22%	-0.418 ± 0.2%	-0.399 ± 0.2%	
c1ccc(C[n+]2cccc3ccccc32)cc1 [1-Benzylquinolinium chloride]									LDH release cytotoxicity (0.0327296 µM): -1.88 ± 0.03%; LDH release cytotoxicity (0.1035 µM): -1.6 ± 0.26%; LDH release cytotoxicity (0.327296 µM): -1.47 ± 1.5%; LDH release cytotoxicity (1.035 µM): -1.94 ± 0.25%; LDH release cytotoxicity (3.27296 µM): -1.92 ± 0.61%; LDH release cytotoxicity (10.35 µM): -0.779 ± 0.81%; LDH release cytotoxicity (32.729574 µM): 0.264 ± 0.71%; LDH release cytotoxicity (103.5 µM): -1.31 ± 1.1%
O=[N+]([O-])c1ccc(Cl)cc1 [1-Chloro-4-nitrobenzene]	-0.728 ± 0.66%	-0.523 ± 0.12%	-0.0534 ± 0.38%	0.685 ± 0.47%	5.08 ± 0.88%	18 ± 1.8%	-0.012 ± 0.35%	0.037 ± 0.14%	
CCCCCCCCCCO [1-Decanol]	-2.45 ± 1%	-2.76 ± 0.3%	-1.79 ± 1%	-1.21 ± 0.22%	-0.773 ± 0.89%	0.757 ± 0.16%	-1.47 ± 0.66%	-1.67 ± 0.81%	
CCCCCCCCCCCCO [1-Dodecanol]	-0.16 ± 8%	-2.62 ± 3.8%	-2.27 ± 3.2%	-0.892 ± 4.2%	-1.67 ± 1%	-0.399 ± 1.2%			LDH release cytotoxicity (0.031623 µM): -3.98 ± 0.71%; LDH release cytotoxicity (0.316228 µM): -2.69 ± 2.2%
CCCCCCCCCCCCN1CCCC1=O [1-Dodecyl-2-pyrrolidinone]	-0.917 ± 1.2%	-2.75 ± 1%	-3.37 ± 2%	-2.86 ± 0.27%	-2.4 ± 0.15%	0.295 ± 0.75%			LDH release cytotoxicity (0.031623 µM): -0.38 ± 1.3%; LDH release cytotoxicity (0.316228 µM): -3 ± 1.8%
CCCCCCCCCCCCCCCCO [1-Hexadecanol]									LDH release cytotoxicity (0.0320971 µM): -2.16 ± 0.6%; LDH release cytotoxicity (0.1015 µM): -2.95 ± 0.21%; LDH release cytotoxicity (0.320971 µM): -2.48 ± 0.093%; LDH release cytotoxicity (1.015 µM): -3.51 ± 0.26%; LDH release cytotoxicity (3.2097118 µM): -3.1 ± 0.27%; LDH release cytotoxicity (10.15 µM): -2.1 ± 0.81%; LDH release cytotoxicity (32.0971 µM): -1.56 ± 0.39%; LDH release cytotoxicity (101.5 µM): 3.36 ± 0.21%
Oc1ccc2ccc3cccc4ccc1c2c34 [1-Hydroxypyrene]	-0.855 ± 0.05%	-1.23 ± 0.16%	-1.18 ± 0.77%	-0.495 ± 0.78%	-0.838 ± 0.25%	0.111 ± 0.6%	-0.176 ± 0.49%	-1.52 ± 0.41%	
COCC(C)O (stereo not given) [1-Methoxy-2-propanol]	-1.18 ± 1.1%	-1.81 ± 0.6%	-1.09 ± 0.06%	-0.197 ± 0.52%	-0.477 ± 0.073%	0.469 ± 0.036%	-0.68 ± 0.076%	-1.53 ± 0.67%	
Cn1cc(-c2ccccc2)c(=O)c(-c2cccc(C(F)(F)F)c2)c1 [1-Methyl-3-phenyl-5-(3-(trifluoromethyl)phenyl)-4-pyridone]									LDH release cytotoxicity (0.02893 µM): -1.78 ± 0.74%; LDH release cytotoxicity (0.0915 µM): -1.31 ± 0.83%; LDH release cytotoxicity (0.289348 µM): -1.94 ± 0.24%; LDH release cytotoxicity (0.915 µM): -2.56 ± 0.53%; LDH release cytotoxicity (2.89348 µM): -2.08 ± 0.3%; LDH release cytotoxicity (9.15 µM): -2.29 ± 0.32%; LDH release cytotoxicity (28.9348 µM): -1.81 ± 0.048%; LDH release cytotoxicity (91.5 µM): 20.3 ± 0.7%
Cc1cccc2ccccc12 [1-Methylnaphthalene]	-2.7 ± 0.83%	-3.13 ± 0.52%	-2.9 ± 0.43%	-2.97 ± 0.64%	-1.66 ± 0.63%	13.3 ± 7.7%			LDH release cytotoxicity (0.031623 µM): -2.15 ± 0.06%; LDH release cytotoxicity (0.316228 µM): -2.77 ± 1.2%
